Data: US7045532B2 (Millennium Pharmaceuticals, Inc., priority 1999, dated 2006)

Key:
ACE-2 = molecular target: T1, ACE-2 (Homo sapiens, UniProt Q9BYF1); assay: ACE-2 Competitive Substrate Assay (ACS Assay); type: biochemical; settings: Ki class; compounds tested in 5% DMSO, 12 concentrations; read-out: Human ACE-2 Activity
T1 construct: a stop codon inserted after the serine immediately preceding the transmembrane domain; made in house; host or cells: CHO K1 cells (transient transfection, purified from conditioned medium)
T1 sequence (Q9BYF1 18-740 limits assumed): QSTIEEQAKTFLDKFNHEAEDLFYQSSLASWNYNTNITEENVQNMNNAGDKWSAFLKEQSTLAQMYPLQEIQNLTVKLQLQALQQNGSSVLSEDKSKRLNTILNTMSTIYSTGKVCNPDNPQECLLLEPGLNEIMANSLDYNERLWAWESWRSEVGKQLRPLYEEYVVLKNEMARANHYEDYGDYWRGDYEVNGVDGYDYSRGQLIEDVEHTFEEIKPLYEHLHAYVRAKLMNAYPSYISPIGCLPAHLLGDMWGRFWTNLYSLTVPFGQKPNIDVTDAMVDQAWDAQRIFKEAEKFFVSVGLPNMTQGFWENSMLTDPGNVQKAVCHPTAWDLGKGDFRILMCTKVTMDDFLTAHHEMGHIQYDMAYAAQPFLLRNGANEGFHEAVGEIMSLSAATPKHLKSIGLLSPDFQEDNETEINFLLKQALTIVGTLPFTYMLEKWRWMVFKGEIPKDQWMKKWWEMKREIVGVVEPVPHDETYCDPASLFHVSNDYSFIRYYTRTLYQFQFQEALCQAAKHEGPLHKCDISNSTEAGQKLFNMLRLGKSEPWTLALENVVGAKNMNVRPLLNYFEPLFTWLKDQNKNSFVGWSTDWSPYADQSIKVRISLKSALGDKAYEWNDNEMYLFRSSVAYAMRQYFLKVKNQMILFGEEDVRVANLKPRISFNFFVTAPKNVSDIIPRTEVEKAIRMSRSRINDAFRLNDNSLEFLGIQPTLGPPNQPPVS

ACE (Sigma, A2580) = molecular target: T2, ACE (Sigma, A2580) (Sus scrofa, UniProt F1RRW5); assay: ACE enzymatic activity assay; type: biochemical, porcine; settings: Ki class; compounds tested in 5% DMSO, 12 concentrations
T2 construct: ACE from porcine kidney; purchased Sigma A2580; host or cells: porcine kidney
T2 sequence (F1RRW5 34-1309): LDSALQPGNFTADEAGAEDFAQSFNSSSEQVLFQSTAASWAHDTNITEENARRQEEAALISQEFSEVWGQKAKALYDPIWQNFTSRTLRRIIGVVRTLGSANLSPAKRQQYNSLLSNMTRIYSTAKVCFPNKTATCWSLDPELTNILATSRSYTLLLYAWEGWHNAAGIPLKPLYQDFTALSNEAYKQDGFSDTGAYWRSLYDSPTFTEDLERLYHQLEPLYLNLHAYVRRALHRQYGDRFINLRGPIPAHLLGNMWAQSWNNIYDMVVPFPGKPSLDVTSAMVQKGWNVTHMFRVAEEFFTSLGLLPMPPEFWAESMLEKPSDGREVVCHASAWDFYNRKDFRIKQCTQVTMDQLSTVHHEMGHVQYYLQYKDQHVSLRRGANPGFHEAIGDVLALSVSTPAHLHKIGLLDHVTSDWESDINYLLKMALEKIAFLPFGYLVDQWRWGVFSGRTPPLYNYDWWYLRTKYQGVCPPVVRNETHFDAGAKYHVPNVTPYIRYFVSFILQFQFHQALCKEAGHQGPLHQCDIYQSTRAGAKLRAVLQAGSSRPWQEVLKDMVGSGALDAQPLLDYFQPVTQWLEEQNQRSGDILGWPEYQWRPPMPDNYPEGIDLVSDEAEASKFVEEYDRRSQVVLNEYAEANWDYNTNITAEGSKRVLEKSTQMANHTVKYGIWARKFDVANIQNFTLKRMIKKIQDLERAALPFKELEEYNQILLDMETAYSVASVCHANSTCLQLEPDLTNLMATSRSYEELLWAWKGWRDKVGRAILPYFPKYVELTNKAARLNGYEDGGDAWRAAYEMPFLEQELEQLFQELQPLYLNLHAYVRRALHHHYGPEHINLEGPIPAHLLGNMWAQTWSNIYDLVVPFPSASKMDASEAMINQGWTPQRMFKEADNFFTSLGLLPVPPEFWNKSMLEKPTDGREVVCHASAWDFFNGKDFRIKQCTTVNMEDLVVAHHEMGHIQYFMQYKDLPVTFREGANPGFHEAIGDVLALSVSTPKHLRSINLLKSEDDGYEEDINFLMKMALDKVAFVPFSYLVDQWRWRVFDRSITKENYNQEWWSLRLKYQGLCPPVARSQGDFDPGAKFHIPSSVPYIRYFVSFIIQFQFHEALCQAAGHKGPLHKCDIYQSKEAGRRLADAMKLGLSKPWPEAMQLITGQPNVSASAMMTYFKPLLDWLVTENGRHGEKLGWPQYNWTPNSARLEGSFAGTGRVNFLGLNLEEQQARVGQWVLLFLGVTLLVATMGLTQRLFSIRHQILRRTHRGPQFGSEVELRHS
Experimental: ACE (Sigma, A2580) enzymatic activity was assayed in microtiter plates using the following protocol. ACE assay buffer was made from 50 mM HEPES (Sigma), 300 mM sodium chloride (Sigma), and 0.01% Brij-35 (Pierce Chemical Co) at pH 7.5.
Reactions were mixed and incubated at 25° C. Enzymatic cleavage of the substrate is marked by a fluorescence change (excitation 330 nm, emission 415 nm).
The activity of the test compounds was investigated using the procedure outlined above. The compounds were tested in 5% DMSO. Enzyme activity was measured at 12 compound concentrations. […]. […]

Carboxypeptidase A = molecular target: T3, Carboxypeptidase A (Bos taurus, UniProt P00730); assay: Carboxypeptidase A activity assay; type: biochemical; settings: Ki class; compounds tested in 5% DMSO, 12 concentrations
T3 sequence (P00730 111-419): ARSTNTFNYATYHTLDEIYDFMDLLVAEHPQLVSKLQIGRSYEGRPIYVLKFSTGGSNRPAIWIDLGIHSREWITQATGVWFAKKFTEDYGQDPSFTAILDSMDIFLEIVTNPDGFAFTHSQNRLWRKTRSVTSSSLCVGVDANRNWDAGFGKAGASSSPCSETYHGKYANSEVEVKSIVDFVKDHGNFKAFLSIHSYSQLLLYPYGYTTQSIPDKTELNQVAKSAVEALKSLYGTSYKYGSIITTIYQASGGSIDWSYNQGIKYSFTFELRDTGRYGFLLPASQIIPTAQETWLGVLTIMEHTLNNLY
Experimental: Carboxypeptidase A activity was measured using a literature assay (Holmquist and Riordan, “Carboxypeptidase A,” Methods of Enzymatic Analysis (1984) p. 44–60). The assay was adapted to a 96 well format by adjusting to a 300 μL assay volume and using ultra-thin bottom plates (Costar/Corning) read at 328 nm. The assay was stopped using EDTA.
The activity of the test compounds was investigated using the procedure outlined above. The compounds were tested in 5% DMSO. Enzyme activity was measured at 12 compound concentrations. The Ki was calculated by using Ki=Kiapp/(1+[S]/Km).
To determine whether a test compound is capable of modulating carboxypeptidase A's ability to cleave a substrate the method described in Holmquist and Riordan, Carboxypeptidase A, p44–60, Peptidase and Their Inhibitors in Method of Enzymatic Analysis (1984), may be used.
The assay may be adapted to a 96 well format by adjusting to a 300 μl assay volume and using ultrathin bottom plates (Costar/Coming) read at 328 nm with a final assay volume of 300 μl. The assay may be stopped using EDTA.

| Compound | Ki (ACE-2) | Ki (ACE (Sigma, A2580)) | Ki (Carboxypeptidase A) |
| --- | --- | --- | --- |
| CCC(NC(Cc1cccs1)C(=O)O)C(=O)O (stereo not drawn) [AK, 2-(1-Carboxy-2-thiophen-2-yl-ethylamino)-butync acid] | > 0.5 µM | > 50 µM | > 50 µM |
| CC(C)CC(NC(Cc1cccs1)C(=O)O)C(=O)O (stereo not drawn) [AL, 2-(1-Carobxy-2-thiophen-2-yl-ethylamino)-4-methyl-pentanoic acid] | > 0.5 µM | > 50 µM | > 50 µM |
| CSCC[C@H](NC(C)C(=O)O)C(=O)O (stereo partly drawn) [AM, 2-(1-Carboxy-ethylamino)-4-methylsulfanyl-butync acid] | > 0.5 µM | > 50 µM | > 50 µM |
| CSCC[C@H](NC(CC(C)C)C(=O)O)C(=O)O (stereo partly drawn) [AN, 2-(1-Carboxy-3-methylsulfanyl-propylamino)-4-methyl-pentanoic acid] | > 0.5 µM | > 50 µM | 10 to 50 µM |
| CC(N[C@H](CCc1ccccc1)C(=O)O)C(=O)O (stereo partly drawn) [AW, 2-(1-Carboxy-ethylamino)-4-phenyl-butync acid] | > 0.5 µM | > 50 µM | > 50 µM |
| O=C(O)C(CCc1ccccc1)N[C@@H](CC1CCCCC1)C(=O)O (stereo partly drawn) [BG, 2-(1-Carboxy-2-cyclohexyethylamino)-4-phenyl-butync acid] | > 0.5 µM | > 50 µM | > 50 µM |
| CC(C)C[C@@H](NC(CCc1ccccc1)C(=O)O)C(=O)O (stereo partly drawn) [BH, 2-(1-Carboxy-3-phenyl-propylamino)-4-methyl-pentanoic acid] | > 0.5 µM | > 50 µM | > 50 µM |
| C#CCC(N[C@@H](C(=O)O)c1ccccc1)C(=O)O (stereo partly drawn) [BN, 2-[(Carboxy-phenyl-methyl)-amino]-pent-4-ylnoic acid] | > 0.5 µM | > 50 µM | > 50 µM |
| O=C(O)C(Cc1ccccc1)NC(C(=O)O)c1ccccc1 (stereo not drawn) [BO, 2-[(Carboxy-phenyl-methyl)-amino]-3-phenyl-propionic acid] | > 0.5 µM | > 50 µM | 10 to 50 µM |
| O=C(O)[C@H](CC1CCCCC1)N[C@@H](C(=O)O)c1ccccc1 [BP, 2-[(Carboxy-phenyl-methyl)-amino]-3-cyclohexyl-propionic acid] | > 0.5 µM | > 50 µM | > 50 µM |
| CCCC[C@H](N[C@@H](C(=O)O)c1ccccc1)C(=O)O [BX, 2-[(Carboxy-phenyl-methyl)-amino]-hexanoicacid] | > 0.5 µM | > 50 µM | > 50 µM |
| O=C(O)[C@H](NC1(C(=O)O)CCCCC1)c1ccccc1 [BY, 1-[(Carboxy-phenyl-methyl)-amino]-cyclohexanecarboxylic acid] | > 0.5 µM | > 50 µM | > 50 µM |
| CC(C)CC(NCC(C)C(=O)O)C(=O)O (stereo not drawn) [CG, 2-(2-Carboxy-propylamino)-4-methyl-pentanoic acid] | > 0.5 µM | > 50 µM | > 50 µM |
| CCCCCCC(N[C@H](CCc1ccccc1)C(=O)O)C(=O)O (stereo partly drawn) [CH, 2-(1-Carboxy-3-phenyl-propylamino)-octanoicacid] | > 0.5 µM | > 50 µM | > 50 µM |
| CC(C)CC(N[C@H](CCc1ccccc1)CC(=O)O)C(=O)O (stereo partly drawn) [CI, 2-(1-Carboxymethyl-3-phenyl-propylamino)-4-methyl-pentanoic acid] | > 0.5 µM | > 50 µM | > 50 µM |
| CC(C)CC(N[C@H](CCc1ccccc1)C(=O)O)C(=O)O (stereo partly drawn) [CM, 2-(1-Carboxy-3-phenyl-propylamino)-4-methyl-pentanoic acid] | > 0.5 µM | > 50 µM | > 50 µM |
| CC(C)C[C@H](NCc1ccc(C(=O)O)cc1)C(=O)O [CN, 4-[(1-Carboxy-3-methyl-butylamino)-methyl]-benzoic acid] | > 0.5 µM | > 50 µM | > 50 µM |
| CC(C)C[C@@H](N[C@H](Cc1cscn1)C(=O)O)C(=O)O [CO, 2-(1-Carboxy-2-thiazol-4-yl-ethylamino)-4-methyl-pentanoic acid] | > 0.5 µM | > 50 µM | > 50 µM |
| CC(C)CC(NC(CC(=O)O)c1ccccc1)C(=O)O (stereo not drawn) [CQ, 2-(2-Carboxy-1-phenyl-ethylamino)-4-methyl-pentanoic acid] | > 0.5 µM | > 50 µM | > 50 µM |
| Cc1ccc(C[C@H](CC(=O)O)NC(CC(C)C)C(=O)O)cc1 (stereo partly drawn) [CS, 2-[2-Carboxy-1-(4-methyl-benzyl)-ethylamino]-4-methyl-pentanoic acid] | > 0.5 µM | > 50 µM | > 50 µM |
| CC(C)C[C@H](NCCCc1ccccc1)C(=O)O [CY, 4-Methyl-2-(3-phenyl-propylamino)-pentanoicacid] | > 0.5 µM | > 50 µM | > 50 µM |
| CC(C)C[C@H](N[C@@H](CCc1ccccc1)C(=O)O)C(=O)OC(C)(C)C [CZ, 2-(1-Carboxy-3-phenyl-propylamino)-4-methyl-pentanoic acid tert-butyl ester] | > 0.5 µM | > 50 µM | > 50 µM |
| CC(C)C[C@H](N[C@H](CCc1ccccc1)C(=O)O)C(=O)OC(C)(C)C [DA, 2-(1-Carboxy-3-phenyl-propylamino)-4-methyl-pentanoic acid tert-butyl ester] | > 0.5 µM | > 50 µM | > 50 µM |
| CC(C)C[C@H](N[C@@H](CCc1ccccc1)C(=O)O)C(N)=O [DB, 2-(1-Carbamoyl-3-methyl-butylamino)-4-phenyl-butync acid] | > 0.5 µM | > 50 µM | > 50 µM |
| CC(C)C[C@H](N[C@H](CCc1ccccc1)C(=O)O)C(N)=O [DC, 2-(1-Carbamoyl-3-methyl-butylamino)-4-phenyl-butync acid] | > 0.5 µM | > 50 µM | > 50 µM |
| COC(=O)[C@H](CC(C)C)NC(=O)NCc1ccccc1 [DF, 2-(3-Benzyl-ureido)-4-methyl-pentanoic acidmethyl ester] | > 0.5 µM | > 50 µM | > 50 µM |
| CC(C)CCNC(CCc1ccccc1)C(=O)O (stereo not drawn) [DR, 2-(3-Methyl-butylamino)-4-phenyl-butync acid] | > 0.5 µM | > 50 µM | 10 to 50 µM |
| CC(C)C[C@H](NC(=O)NCc1ccccc1)C(=O)O [DU, 2-(3-Benzyl-ureido)-4-methyl-pentanoic acid] | > 0.5 µM | > 50 µM | 10 to 50 µM |
